Earlier results in patent US20250345336A1, “ALLOPURINOL ORAL SUSPENSION” (Extrovis AG, priority 2024, published 2025).

Oc1ncnc2[nH]ncc12 [Allopurinol, 1,5-dihydro-4H-pyrazolo [3,4-d] pyrimidin-4-one]
aqueous solubility: poor aqueous solubility
